In PubChem BioAssay (NCI) one finds TGI and GI50 data, which are given here for six molecules.

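Method: 48-hour compound exposure of cells in 96-well plates, five concentrations, linear interpolation of endpoints. Here, GI50 denotes the concentration required for 50% inhibition of growth. TGI: concentration producing complete growth inhibition.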 Where only a bound is given, the exact number is not on record here.

Test systems include CCRF-CEM leukemia; HS 578T breast; MDA-N; DLD-1 colon; DMS 114 small cell lung; HOP-18 NSCLC; KM20L2 colon; M19-MEL melanoma; P388/ADR leukemia; SN12K1 renal; SNB-78 CNS.
Holding throughout (test): NCI tumour cell line growth inhibition, 48 h

Take `N#Cc1c(NC(=S)NC(=O)c2ccccc2)nc2c(c1-c1ccccc1)CCC2`: the TGI in the assay with CCRF-CEM leukemia, in the assay on HS 578T breast and in the assay on MDA-N was greater than 100 µM throughout.

Turning to `O=C(Nc1ccc(I)cc1C(=O)NCCO)c1cccs1`, in the assay on CCRF-CEM leukemia, the TGI was greater than 100 µM.

In the case of `CCn1cc(C(c2ccc(Cl)cc2)n2ccnc2)c2cc(Br)ccc21` (stereo unspecified), the TGI is 47.2 µM in the assay with HS 578T breast and 66.2 µM in the assay with MDA-N.

Take `CSC1=Nc2ccccc2N(C)c2c1c(-c1ccccc1)nn2C`: the TGI in the assay on CCRF-CEM leukemia was 53.1 µM; with HS 578T breast, greater than 100 µM; in the assay on MDA-N it was greater than 100 µM.

Regarding `O=[Se]([O-])c1ccccc1.O=[Se]([O-])c1ccccc1.[OH3+].[OH3+].[Pt+2]`, the GI50 was 3.15 µM in the assay with CCRF-CEM leukemia; 4.85 µM in the assay on DLD-1 colon; 3.73 µM in the assay on DMS 114 small cell lung; 15.1 µM in the assay with HOP-18 NSCLC; 8.88 µM in the assay on KM20L2 colon; 8.43 µM in the assay on M19-MEL melanoma. The values for the GI50 in the assay with P388/ADR leukemia, in the assay on SN12K1 renal and in the assay with SNB-78 CNS were 2.12 µM, 4.5 µM and 15.3 µM, respectively. Also, the TGI in the assay on CCRF-CEM leukemia was greater than 35.9 µM; in the assay with DLD-1 colon it was 24.3 µM; in the assay with DMS 114 small cell lung, 20.8 µM; in the assay on HOP-18 NSCLC, 60.6 µM; in the assay on KM20L2 colon, 35.1 µM; in the assay on M19-MEL melanoma it was 44.8 µM. The TGI turned out to be 11.8 µM with P388/ADR leukemia, 15 µM in the assay on SN12K1 renal and 37.5 µM in the assay on SNB-78 CNS.

As for `COC1OC(=O)[C@H]2O[N+]([O-])=C(C)[C@@H]12` (stereo partly specified), the TGI in the assay on CCRF-CEM leukemia, in the assay with DLD-1 colon, with DMS 114 small cell lung, in the assay with HOP-18 NSCLC, in the assay on KM20L2 colon and in the assay on M19-MEL melanoma was greater than 100 µM throughout. Also, the TGI in the assay with P388/ADR leukemia, in the assay on SN12K1 renal and in the assay on SNB-78 CNS was greater than 100 µM each time.
